{
  "source": "patent US9040507B2",
  "about": "“Method for treating inflammatory conditions” (Novelmed Therapeutics, Inc., priority 2008, dated 2015)",
  "key": {"[1]": {"tested_on": "mouse collagen-induced arthritis (CIA)", "experiment": "Mouse collagen-induced arthritis (CIA) model", "type": "in vivo, DBA/J1 mice", "settings": "dosing from day 18", "description": "Male DBA/J1 mice (7-9 weeks old from Jackson Labs, Bar Harbor, Me., USA) were used. The CIA study using mice of same age, strain and source was performed at Boulder BioPATH Inc as described below. Male DBA/J1 mice were shaved at the base of the tail and injected with 0.1 ml emulsion consisting of a 1 to 1 (1 mg/l mg) mixture of type II chicken collagen with Mycobacterium butyricum (Difco) as an adjuvant. Three weeks later, the mice were boosted with another 0.1 ml injection of emulsion at the base of the tail to induce disease. Dosing started at day 18 while the last boost to induce the disease was at day 21. The mice were scored in a blinded manner twice weekly for 3 weeks for signs of arthritis in each paw according to the following scale: clinical signs were evaluated using the following scale: 0=normal; 1=one joint affected or mild diffuse erythema and swelling; 2=two joints affected or mild diffuse erythema and swelling; 3=three joints affected or mild diffuse erythema and swelling; 4=four joint affected or marked diffuse erythema and swelling; and 5=severe erythema and severe swelling. Upon study completion (day 28), mice were killed with CO2."}, "[2]": {"tested_on": "rat adjuvant induced arthritis (AIA), established disease", "settings": "male rats, 2.5 mg/kg IP every other day from day 16 to day 40, left and right paw; listed as TC 5, 2.5 mg/kg"}, "[3]": {"tested_on": "rat adjuvant induced arthritis (AIA)", "experiment": "Prophylactic model of rat adjuvant induced arthritis (AIA)", "settings": "for joint damage (radiographs; CT scan at 2.5 mg/kg): 2.5 mg/kg/day and 500 μg/kg/day IP; for paw inflammation (paw volume), dose effect: 2.5 mg/kg/day and 500 μg/kg/day IP from day 10, left and right paw; for joint histology (H&E staining): limb at study end"}, "[4]": {"tested_on": "rat adjuvant induced arthritis (AIA)", "settings": "in vivo, ip, 5 mg/kg/day"}, "[5]": {"settings": "male rats, 500 μg/kg/day IP from day 10"}, "[6]": {"settings": "male rats, 10 mg/kg/day IP from day 10 for 14 days, left and right paw, 10 mg/kg/day"}, "[7]": {"settings": "male rats, 10 mg/kg/day IP, 10 mg/kg/day"}, "[8]": {"settings": "male rats, 10 mg/kg/day IP, limbs at study end, 10 mg/kg/day"}, "[9]": {"settings": "male rats, 5 mg/kg/day IP from day 10 for 14 days, right paw, 5 mg/kg/day"}},
  "note": "Entries after “also recorded” stand apart in the source; their conditions may differ.",
  "data": [
    {"smiles": "c1ccc(-c2ccc(C(c3ccccc3)n3ccnc3)cc2)cc1", "note": "(stereo not drawn) [TC5, 1-[phenyl(4-phenylphenyl)methyl]-1H-imidazole]", "values": [
      {"measurement": "clinical scoring of the paws (clinical signs of arthritis)", "setting": "[1]; male mice, 2.5 and 0.25 mg/kg IP", "value": "significant prevention of arthritis with inhibition comparable to ENBREL"},
      {"measurement": "clinical scoring of the paws (clinical signs of arthritis)", "setting": "[1]; male mice, 2.5 and 0.25 mg/kg IP, listed as TC 5", "value": "inhibited clinical signs of the disease comparable to ENBREL treated groups"},
      {"measurement": "clinical scoring of the paws (clinical signs of arthritis)", "setting": "[1]; male mice, 2.5 and 0.25 mg/kg IP, listed as bifonazole", "value": "can reduce paw inflammation"},
      {"measurement": "paw inflammation (paw volume)", "setting": "[2]", "value": "halted the progression of the disease"},
      {"measurement": "paw inflammation (paw volume)", "setting": "[3]; [5]", "value": "maximum inhibition observed at the 500 μg/kg/day"},
      {"measurement": "paw inflammation (paw volume)", "setting": "[3]; male rats, 500 μg/kg/day IP from day 10, listed as TC 5", "value": "also reduced paw inflammation"},
      {"measurement": "paw inflammation (paw volume)", "setting": "[3]; male rats, 2.5 mg/kg/day IP from day 10", "value": "demonstrated maximal effect similar to ENBREL"},
      {"measurement": "joint damage (radiographs; CT scan at 2.5 mg/kg)", "setting": "[3]; male rats", "value": "effective is preserving the joint damage at both concentrations; also recorded: able to prevent significant joint damage compared to the disease control in a dose dependent manner"},
      {"measurement": "paw inflammation (paw volume), dose effect", "setting": "[3]; male rats", "value": "can prevent development and progression of rat adjuvant induced arthritis dose dependently"},
      {"measurement": "paw inflammation (paw volume)", "setting": "[3]; [6]", "value": "reduced paw inflammation to control levels similar to those observed for ENBREL"},
      {"measurement": "paw inflammation (paw volume)", "setting": "[3]; male rats, 10 mg/kg/day IP from day 10 for 14 days, left and right paw, listed as bifonazole, 10 mg/kg/day", "value": "can reduce paw inflammation"},
      {"measurement": "joint histology (H&E staining)", "setting": "[3]; [7]", "value": "minimal inflammation, reduced bone proliferation, preservation of the cartilage, and preservation of the synovial membrane; also recorded: significant preservation of the synovium membrane (white space), significant preservation of the cartilage (space between the 2 blue lines), and minor bone proliferation"},
      {"measurement": "joint damage (radiographs, CT scans)", "setting": "[3]; [8]", "value": "prevents joint damage similar to those from ENBREL treated group; also recorded: able to prevent significant joint damage compared to the disease control; also recorded: significant reduction in bone damage in treated animals compared to diseased animals"},
      {"measurement": "joint damage (radiographs, CT scans)", "setting": "[3]; male rats, 10 mg/kg/day IP, limbs at study end, listed as bifonazole, 10 mg/kg/day", "value": "can reduce paw inflammation (FIGS. 1-2) and ankle damage"},
      {"measurement": "joint damage (radiographs; CT scan of 500 μg/Kg oral group)", "setting": "[3]; male rats, 5, 2.5 and 0.5 mg/kg/day oral gavage", "value": "effective in preserving the joint damage at all three concentrations tested; also recorded: significant reduction in bone damage in treated animals compared to diseased animals"},
      {"measurement": "paw inflammation (paw volume)", "setting": "[3]; male rats, 5, 2.5 and 0.5 mg/kg/day oral gavage from day 10", "value": "not as effective as the IP dosing"},
      {"measurement": "paw inflammation (paw volume)", "setting": "[3]; male rats, 5, 2.5 and 0.5 mg/kg/day oral gavage from day 10, listed as TC 5", "value": "dose dependent with the highest dose demonstrated maximal effect"}
    ]},
    {"smiles": "COc1ccc(C(Cl)=C(c2ccc(OC)cc2)c2ccc(OC)cc2)cc1", "note": "[TC10, 1,1′,1″-(2-chloroethene-1,1,2-triyl)tris(4-methoxybenzene)]", "values": [
      {"measurement": "clinical scoring of the paws (clinical signs of arthritis)", "setting": "[1]; male mice, 25, 2.5 and 0.25 mg/kg IP", "value": "All three doses inhibited clinical signs of the disease; also recorded: significant prevention of arthritis with inhibition greater than ENBREL at all tested doses"},
      {"measurement": "clinical scoring of the paws (clinical signs of arthritis)", "setting": "[1]; male mice, 25, 2.5 and 0.25 mg/kg IP, listed as chlorotrianisene", "value": "can reduce paw inflammation"},
      {"measurement": "weight loss", "setting": "[4]", "value": "near negligible"},
      {"measurement": "joint damage (radiographs)", "setting": "[3]; female rats, 2.5 and 0.5 mg/kg/day IP", "value": "effective in preserving the joint damage at both concentrations tested; also recorded: able to prevent significant joint damage compared to the disease control"},
      {"measurement": "paw inflammation (paw volume)", "setting": "[3]; female rats, 2.5 and 0.5 mg/kg/day IP from day 10 for 12 days, listed as TC 10", "value": "inhibited at both doses"},
      {"measurement": "paw inflammation (paw volume)", "setting": "[3]; female rats, 5 and 2.5 mg/kg/day oral", "value": "prevented paw inflammation; also recorded: significant reduction in paw inflammation"},
      {"measurement": "joint damage (radiographs)", "setting": "[3]; female rats, oral, 5 mg/kg/day", "value": "effective in female rates in preserving joint damage"},
      {"measurement": "paw inflammation (paw volume)", "setting": "[3]; [5]", "value": "also reduced paw inflammation; also recorded: comparable results to ENBREL"},
      {"measurement": "paw inflammation (paw volume)", "setting": "[3]; male rats, 2.5 mg/kg/day IP from day 10, 2.5 mg/kg/day", "value": "maximal effect better than ENBREL with nearly complete inhibition of paw inflammation; also recorded: near complete prevention of arthritis bringing paw inflammation near the non-disease control; also recorded: maximum inhibition observed at 2.5 mg/kg/day dose bringing inflammation down to the non-disease control level"},
      {"measurement": "joint damage (radiographs; CT scan at 2.5 mg/kg)", "setting": "[3]; male rats", "value": "effective is preserving the joint damage at both concentrations; also recorded: shows preservation of the joint damage; also recorded: able to prevent significant joint damage at both doses 2.5 mg and 0.5 mg compared to the disease control in a dose dependent manner; also recorded: Joint damage was almost completely prevented with no joint damage"},
      {"measurement": "paw inflammation (paw volume), dose effect", "setting": "[3]; male rats", "value": "can prevent development and progression of rat adjuvant induced arthritis dose dependently with maximum effect observed at 2.5 dose"},
      {"measurement": "paw inflammation (paw volume)", "setting": "[3]; [9]", "value": "reduced paw inflammation to control levels similar to those observed for ENBREL"},
      {"measurement": "paw inflammation (paw volume)", "setting": "[3]; male rats, 5 mg/kg/day IP from day 10 for 14 days, right paw, listed as NM2026, 5 mg/kg/day", "value": "able to inhibit paw inflammation similar to the effects of ENBREL"},
      {"measurement": "paw inflammation (paw volume)", "setting": "[3]; male rats, 5 mg/kg/day oral gavage from day 10, 5 mg/kg/day", "value": "can prevent development and progression of rat adjuvant induced arthritis; also recorded: not as effective as the IP dosing"},
      {"measurement": "paw inflammation (paw volume)", "setting": "[3]; male rats, 5 mg/kg/day oral gavage from day 10, listed as TC 10, 5 mg/kg/day", "value": "inhibited paw inflammation to ENBREL controls"},
      {"measurement": "joint damage (radiographs, CT scans)", "setting": "[3]; male rats, 5 mg/kg/day oral gavage, 5 mg/kg/day", "value": "effectively preserves the joint damage; also recorded: able to prevent significant joint damage compared to the disease control at 5 mg/kg dose tested; also recorded: near complete prevention of joint destruction at 5 mg/kg/day compared to the diseased control"},
      {"measurement": "paw inflammation (paw volume)", "setting": "[3]; [6]", "value": "can prevent development and progression of rat adjuvant induced arthritis comparable to the effects of ENBREL; also recorded: able to inhibit paw inflammation similar to the effects of ENBREL"},
      {"measurement": "paw inflammation (paw volume)", "setting": "[3]; male rats, 10 mg/kg/day IP from day 10 for 14 days, left and right paw, listed as TC 10, 10 mg/kg/day", "value": "reduced paw inflammation to control levels similar to those observed for ENBREL"},
      {"measurement": "joint histology (H&E staining)", "setting": "[3]; [7]", "value": "minimal inflammation, reduced bone proliferation, preservation of the cartilage, and preservation of the synovial membrane; also recorded: significant preservation of the synovium membrane (white space), significant preservation of the cartilage (space between the 2 blue lines), and minor bone proliferation"},
      {"measurement": "joint damage (radiographs, CT scans)", "setting": "[3]; [8]", "value": "prevents joint damage similar to those from ENBREL treated group; also recorded: able to prevent significant joint damage compared to the disease control; also recorded: significant reduction in bone damage in treated animals compared to diseased animals"}
    ]},
    {"smiles": "CC/C(=C(\\c1ccccc1)c1ccc(OCCN(C)C)cc1)c1ccccc1", "note": "[Tamoxifen, (Z)-2-[4-(1,2-diphenylbut-1-enyl)phenoxy]-N,N-dimethyl-ethanamine]", "values": [
      {"measurement": "paw inflammation (paw volume)", "setting": "[3]; [9]", "value": "reduced paw inflammation to control levels similar to those observed for ENBREL"},
      {"measurement": "paw inflammation (paw volume)", "setting": "[3]; male rats, 5 mg/kg/day IP from day 10 for 14 days, right paw, listed as tamoxifen, 5 mg/kg/day", "value": "can reduce paw inflammation"}
    ]}
  ]
}
